Columns and labels:
human MAO-B = target: T1, human MAO-B (Homo sapiens, UniProt P27338); assay: MAO-B enzymatic activity, spectrophotometric assay (Amplex Red, tyramine substrate) on membranes of transfected EBNA cells; type: biochemical; conditions: membranes of EBNA cells transfected with human MAO-B cDNA, 30 min preincubation at 37° C., pH 7.4
T1 construct: expressed in transfected cells; host or cells: EBNA cells (transient transfection), membrane preparation
T1 sequence (P27338 1-520): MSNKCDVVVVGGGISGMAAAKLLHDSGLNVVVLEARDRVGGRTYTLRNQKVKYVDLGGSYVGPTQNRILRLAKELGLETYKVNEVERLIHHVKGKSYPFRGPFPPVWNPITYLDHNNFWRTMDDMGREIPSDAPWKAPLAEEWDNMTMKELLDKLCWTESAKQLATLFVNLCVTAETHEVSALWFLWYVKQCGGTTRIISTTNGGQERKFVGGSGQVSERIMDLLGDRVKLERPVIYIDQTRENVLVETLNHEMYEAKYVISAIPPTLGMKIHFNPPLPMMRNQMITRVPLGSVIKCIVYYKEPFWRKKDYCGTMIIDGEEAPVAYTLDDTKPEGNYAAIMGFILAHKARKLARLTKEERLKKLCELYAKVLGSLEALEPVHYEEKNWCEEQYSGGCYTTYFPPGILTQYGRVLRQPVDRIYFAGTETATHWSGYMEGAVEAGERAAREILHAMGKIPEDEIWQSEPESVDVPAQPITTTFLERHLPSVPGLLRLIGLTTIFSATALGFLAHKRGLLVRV
Description: (§1) The cDNA's encoding human MAO-A and MAO-B were transiently transfected into EBNA cells using the procedure described by Schlaeger and Christensen [Cytotechnology 15:1-13 (1998)]. After transfection, cells were homogenised by means of a Polytron homogenizer in 20 mM Tris HCl buffer, pH 8.0, containing 0.5 mM EGTA and 0.5 mM phenylmethanesulfonyl fluoride. Cell membranes were obtained by centrifugation at 45,000×g and, after two rinsing steps with 20 mM Tris HCl buffer, pH 8.0, containing 0.5 mM EGTA, membranes were eventually re-suspended in the above buffer and aliquots stored at −80° C. until use.
(§2) MAO-A and MAO-B enzymatic activity was assayed in 96-well-plates using a spectrophotometric assay adapted from the method described by Zhou and Panchuk-Voloshina [Analytical Biochemistry 253:169-174 (1997)]. Briefly, membrane aliquots were incubated in 0.1 M potassium phosphate buffer, pH 7.4, for 30 min at 37° C. with or without various concentrations of the compounds. After this period, the enzymatic reaction was started by the addition of the MAO substrate tyramine together with 1 U/ml horse-radish peroxidase (Roche Biochemicals) and 80 μM N-acetyl-3,7,-dihydroxyphenoxazine (Amplex Red, Molecular Probes). The samples were further incubated for 30 min at 37° C. in a final volume of 200 μl and absorbance was then determined at a wavelength of 570 nm using a SpectraMax plate reader (Molecular Devices). Background (non-specific) absorbance was determined in the presence of 10 μM clorgyline for MAO-A or 10 μM L-deprenyl for MAO-B.
(§3) IC50 values were determined from inhibition curves obtained using nine inhibitor concentrations in duplicate, by fitting data to a four parameter logistic equation using a computer program.

human MAO-A = target: T2, human MAO-A (Homo sapiens, UniProt P21397); assay: MAO-A enzymatic activity, spectrophotometric assay (Amplex Red, tyramine substrate) on membranes of transfected EBNA cells; type: biochemical; conditions: membranes of EBNA cells transfected with human MAO-A cDNA, 30 min preincubation at 37° C., pH 7.4
T2 construct: expressed in transfected cells; host or cells: EBNA cells (transient transfection), membrane preparation
T2 sequence (P21397 1-527): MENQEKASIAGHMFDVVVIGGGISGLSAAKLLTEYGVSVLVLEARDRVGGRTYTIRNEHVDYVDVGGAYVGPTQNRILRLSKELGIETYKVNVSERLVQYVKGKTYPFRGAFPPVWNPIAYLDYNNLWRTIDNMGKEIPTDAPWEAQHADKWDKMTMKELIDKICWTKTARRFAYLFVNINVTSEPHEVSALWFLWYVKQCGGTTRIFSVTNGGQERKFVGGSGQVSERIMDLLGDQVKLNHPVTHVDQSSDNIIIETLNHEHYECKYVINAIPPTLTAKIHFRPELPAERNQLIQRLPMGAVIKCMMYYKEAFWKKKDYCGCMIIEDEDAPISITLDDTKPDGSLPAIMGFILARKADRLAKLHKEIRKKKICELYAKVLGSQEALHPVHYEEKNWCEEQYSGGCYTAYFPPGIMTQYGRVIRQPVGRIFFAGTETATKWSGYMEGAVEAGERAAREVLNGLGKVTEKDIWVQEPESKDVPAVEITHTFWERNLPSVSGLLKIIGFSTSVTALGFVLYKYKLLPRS
Description: as §1, §2, §3

Row | SMILES | IC50 (human MAO-B) [µM] | IC50 (human MAO-A) [µM]
1 | CNC(=O)OCc1ccc(OCc2cccc(F)c2)cc1 [Example 26, Methyl-carbamic acid 4-(3-fluoro-benzyloxy)-benzyl ester] | 0.089 | > 10
2 | CNC(=O)C(C)Oc1ccc(OCc2cccc(Cl)c2)cc1 (single isomer, unassigned) [Example 13, (S or R)-2-[4-(3-Chloro-benzyloxy)-phenoxy]-N-methyl-propionamide] | 0.009 | > 10
3 | CNC(=O)COc1ccc(OCc2ccc(F)cc2)cc1 [Example 7, 2-[4-(4-Fluoro-benzyloxy)-phenoxy]-N-methyl-acetamide] | 0.009 | 5.4
4 | CNC(=O)COc1ccc(OCc2ccccc2)cc1 [Example 2, 2-(4-Benzyloxy-phenoxy)-N-methyl-acetamide] | 0.052 | > 10
5 | CCC(Oc1ccc(OCc2cccc(F)c2)cc1)C(=O)NC (racemic) [Example 17, (RS)-2-[4-(3-Fluoro-benzyloxy)-phenoxy]-N-methyl-butyramide] | 0.056 | > 10
6 | CCC(Oc1ccc(OCc2ccc(C#N)cc2)cc1)C(=O)NC (racemic) [Example 19, (RS)-2-[4-(4-Cyano-benzyloxy)-phenoxy]-N-methyl-butyramide] | 0.074 | > 10
7 | NC(=O)COCc1ccc(OCc2cccc(F)c2)cc1 [Example 27, 2-[4-(3-Fluoro-benzyloxy)-benzyloxy]-acetamide] | 0.051 | > 10
8 | CNC(=O)C(C)Oc1ccc(OCc2ccc(C#N)cc2)cc1 (racemic) [Example 14, (RS)-2-[4-(4-Cyano-benzyloxy)-phenoxy]-N-methyl-propionamide] | 0.031 | > 10
9 | CNC(=O)COc1ccc(OCc2ccccc2F)cc1 [Example 5, 2-[4-(2-Fluoro-benzyloxy)-phenoxy]-N-methyl-acetamide] | 0.081 | > 9
10 | CNC(=O)COc1ccc(OCc2ccc(C#N)cc2)cc1 [Example 3, 2-[4-(4-Cyano-benzyloxy)-phenoxy]-N-methyl-acetamide] | 0.028 | 2.86
11 | NC(=O)OCCc1ccc(OCc2cccc(F)c2)cc1 [Example 24, Carbamic acid 2-[4-(3-fluoro-benzyloxy)-phenyl]-ethyl ester] | 0.068 | > 10
12 | CNC(=O)COc1ccc(OCc2cccc(F)c2)cc1 [Example 6, 2-[4-(3-Fluoro-benzyloxy)-phenoxy]-N-methyl-acetamide] | 0.021 | > 10
13 | NC(=O)CCOc1ccc(OCc2cccc(F)c2)cc1 [Example 23, 3-[4-(3-Fluoro-benzyloxy)-phenoxy]-propionamide] | 0.044 | > 10
14 | CCC(Oc1ccc(OCc2cccc(Cl)c2)cc1)C(=O)NC (racemic) [Example 18, (RS)-2-[4-(3-Chloro-benzyloxy)-phenoxy]-N-methyl-butyramide] | 0.028 | > 10
15 | CNC(=O)C(C)Oc1ccc(OCc2cccc(F)c2)cc1 (racemic) [Example 11, (RS)-2-[4-(3-Fluoro-benzyloxy)-phenoxy]-N-methyl-propionamide] | 0.031 | > 10
16 | CNC(=O)C(C)Oc1ccc(OCc2cccc(Cl)c2)cc1 (racemic) [Example 12, (RS)-2-[4-(3-Chloro-benzyloxy)-phenoxy]-N-methyl-propionamide] | 0.015 | > 10
17 | CNC(=O)COc1ccc(OCc2ccc(Cl)cc2)cc1 [Example 4, 2-[4-(4-Chloro-benzyloxy)-phenoxy]-N-methyl-acetamide] | 0.012 | 2.44
